Source: PubChem BioAssay AID214 (DTP/NCI, 2004)
Several values for one entry are separate records, joined by “and”; a condition that tells them apart may be missing. Equal entries are not always repeated. Results filed as inconclusive are left out.

Tested on: B6C3F1 mice, colon carcinoma 38 s.c., T/C
Experiment: NCI In Vivo Anticancer Drug Screen. Data for tumor model Colon Carcinoma 38 (subcutaneous) in B6C3F1 mice
Conditions: endpoint: median tumor weight (est.), higher = larger tumour
Experimental: The antitumor activity of compounds was measured in mice bearing transplantable tumors. Survival or tumor size were measured and the results are expressed as the measurement made in the treated group (T) divided by the measurement made in the vehicle treated control group (C). The tumor model used in this assay is Colon Carcinoma 38 (subcutaneous) in B6C3F1 mice

[1] = dose: 25.0 mg/kg/injection, schedule: Q07DX002 (ip), vehicle: Klucel (hydroxypropylcellulose) (HPC)
[2] = dose: 50.0 mg/kg/injection, schedule: Q07DX002 (ip), vehicle: Klucel (hydroxypropylcellulose) (HPC)
[3] = dose: 150.0 mg/kg/injection, schedule: Q07DX002 (ip), vehicle: saline with Tween-80
[4] = dose: 300.0 mg/kg/injection, schedule: Q07DX002 (ip), vehicle: saline with Tween-80
[5] = dose: 600.0 mg/kg/injection, schedule: Q07DX002 (ip), vehicle: saline with Tween-80
[6] = dose: 25.0 mg/kg/injection, schedule: Q07DX002 (ip), vehicle: suspension in saline
[7] = dose: 200.0 mg/kg/injection, schedule: Q07DX002 (ip), vehicle: saline with Tween-80
[8] = dose: 400.0 mg/kg/injection, schedule: Q07DX002 (ip), vehicle: saline with Tween-80
[9] = dose: 300.0 mg/kg/injection, schedule: Q07DX002 (ip), vehicle: suspension in saline
[10] = dose: 50.0 mg/kg/injection, schedule: Q07DX002 (ip), vehicle: saline with Tween-80
[11] = dose: 100.0 mg/kg/injection, schedule: Q07DX002 (ip), vehicle: saline with Tween-80
[12] = dose: 50.0 mg/kg/injection, schedule: Q07DX002 (ip), vehicle: suspension in saline
[13] = dose: 100.0 mg/kg/injection, schedule: Q07DX002 (ip), vehicle: suspension in saline

## Cc1c(-c2ccc(-c3ccccc3F)cc2)nc2ccc(F)cc2c1C(=O)O
dose: 3.6 mg/kg/injection, schedule: Q01DX008 (ip), vehicle: water
  T/C: 45 % of control
dose: 6.0 mg/kg/injection, schedule: Q01DX008 (ip), vehicle: water
  T/C: 53 % of control
dose: 10.0 mg/kg/injection, schedule: Q01DX008 (ip), vehicle: water
  T/C: 43 % of control
dose: 16.6 mg/kg/injection, schedule: Q01DX008 (ip), vehicle: water
  T/C: 26 % of control
dose: 27.7 mg/kg/injection, schedule: Q01DX008 (ip), vehicle: water
  T/C: 23 % of control

## CCCCCc1cc(O)c2c(c1)OC(C)(C)[C@@H]1CCC(C)=C[C@@H]21
dose: 200.0 mg/kg/injection, schedule: Q07DX002 (ip), vehicle: other
  T/C: 81 % of control
dose: 400.0 mg/kg/injection, schedule: Q07DX002 (ip), vehicle: other
  T/C: 98 % of control

## O=C1C2CC(Cl)C(SSC3CC4C(=O)N(SC(Cl)(Cl)C(Cl)Cl)C(=O)C4CC3Cl)CC2C(=O)N1SC(Cl)(Cl)C(Cl)Cl (stereo not given)
[1]
  T/C: 91 % of control
[2]
  T/C: 66 % of control
dose: 100.0 mg/kg/injection, schedule: Q07DX002 (ip), vehicle: Klucel (hydroxypropylcellulose) (HPC)
  T/C: 74 % of control

## COc1ccc2cc1Oc1ccc(cc1)C[C@H]1c3cc(c(OC)cc3CCN1C)Oc1c(OC)c(OC)cc3c1[C@H](C2)N(C)CC3
[3]
  T/C: 102 % of control and 106 % of control
[4]
  T/C: 57 % of control
[5]
  T/C: 29 % of control

## Cc1cc(NS(=O)(=O)c2ccc(N=Nc3cc(N=Nc4ccc(S(=O)(=O)Nc5cc(C)nc(C)n5)cc4)c4c(NC(=O)C(Cl)Cl)cccc4c3OC(=O)C(Cl)Cl)cc2)nc(C)n1 (tested in a mixture with another compound)
[6]
  T/C: 111 % of control
dose: 400.0 mg/kg/injection, schedule: Q07DX002 (ip), vehicle: suspension in saline
  T/C: 114 % of control

## COC(=O)NC1C(C)OC(OC2C/C=C(/C)C3C=CC4C(OC5CC(OC6CCC(OC7CC(O)C(OC8CCC(O)C(C)O8)C(C)O7)C(C)O6)C(OC(C)=O)C(C)O5)C(C)CC(C)C4C3(C)/C(O)=C3/C(=O)OC4(CC(C=O)=CC(O)C4/C=C\2C)C3=O)CC1(C)[N+](=O)[O-] (stereo not given)
dose: 2.5 mg/kg/injection, schedule: Q07DX002 (ip), vehicle: water
  T/C: 86 % of control
dose: 5.0 mg/kg/injection, schedule: Q07DX002 (ip), vehicle: water
  T/C: 96 % of control
dose: 10.0 mg/kg/injection, schedule: Q07DX002 (ip), vehicle: water
  T/C: 89 % of control
dose: 20.0 mg/kg/injection, schedule: Q07DX002 (ip), vehicle: water
  T/C: 82 % of control

## O=C1NC(=O)/C(=C/C=C/c2ccccc2)S1
[7]
  T/C: 67 % of control
[8]
  T/C: 86 % of control
dose: 800.0 mg/kg/injection, schedule: Q07DX002 (ip), vehicle: saline with Tween-80
  T/C: 63 % of control

## NC(=O)CCC(N)C(=O)O (stereo not given)
dose: 75.0 mg/kg/injection, schedule: Q07DX002 (ip), vehicle: suspension in saline
  T/C: 113 % of control
dose: 150.0 mg/kg/injection, schedule: Q07DX002 (ip), vehicle: suspension in saline
  T/C: 43 % of control
[9]
  T/C: 84 % of control
dose: 600.0 mg/kg/injection, schedule: Q07DX002 (ip), vehicle: suspension in saline
  T/C: 101 % of control
dose: 1200.0 mg/kg/injection, schedule: Q07DX002 (ip), vehicle: suspension in saline
  T/C: 91 % of control

## CC(=O)OC1C(O)C(C)OC(OC2C(OC(=O)C3CCC4C(C3)OC3(CC(OC(=O)/C=C/c5ccccc5)C(C)CO3)C43CO3)OC(C)C(O)C2OC(C)=O)C1O (stereo not given)
dose: 3.75 mg/kg/injection, schedule: Q07DX002 (ip), vehicle: distilled water + Tween-80
  T/C: 93 % of control
dose: 7.5 mg/kg/injection, schedule: Q07DX002 (ip), vehicle: distilled water + Tween-80
  T/C: 95 % of control
dose: 15.0 mg/kg/injection, schedule: Q07DX002 (ip), vehicle: distilled water + Tween-80
  T/C: 64 % of control
dose: 30.0 mg/kg/injection, schedule: Q07DX002 (ip), vehicle: distilled water + Tween-80
  T/C: 168 % of control
dose: 60.0 mg/kg/injection, schedule: Q07DX002 (ip), vehicle: distilled water + Tween-80
  T/C: 168 % of control

## COc1cc2c[n+](C)c3c(c2cc1OC)Cc1cc2c(cc1-3)OCO2
[10]
  T/C: 94 % of control
[11]
  T/C: 107 % of control
[7]
  T/C: 97 % of control
[8]
  T/C: 85 % of control

## CCCCNc1ccc2nnc(C)n2n1
dose: 50.0 mg/kg/injection, schedule: Q07DX002 (ip), vehicle: DMSO
  T/C: 98 % of control
dose: 200.0 mg/kg/injection, schedule: Q07DX002 (ip), vehicle: DMSO
  T/C: 114 % of control

## Nc1ccc2ccc(NS(=O)(=O)N3CCCCC3)cc2c1
[10]
  T/C: 108 % of control
[7]
  T/C: 39 % of control
[8]
  T/C: 15 % of control

## COC(=O)Nc1nc2ccc(SC)cc2c(=O)[nH]1
[2]
  T/C: 117 % of control
dose: 200.0 mg/kg/injection, schedule: Q07DX002 (ip), vehicle: Klucel (hydroxypropylcellulose) (HPC)
  T/C: 84 % of control
dose: 400.0 mg/kg/injection, schedule: Q07DX002 (ip), vehicle: Klucel (hydroxypropylcellulose) (HPC)
  T/C: 109 % of control

## C#CCNC1=C(C)C(=O)C2=C(C1=O)[C@H](COC(N)=O)[C@]1(OC)[C@@H]3N[C@@H]3CN21
dose: 1.5 mg/kg/injection, schedule: Q07DX002 (ip), vehicle: distilled water + Tween-80
  T/C: 50 % of control
dose: 3.0 mg/kg/injection, schedule: Q07DX002 (ip), vehicle: distilled water + Tween-80
  T/C: 60 % of control
dose: 6.0 mg/kg/injection, schedule: Q07DX002 (ip), vehicle: distilled water + Tween-80
  T/C: 36 % of control
dose: 12.0 mg/kg/injection, schedule: Q07DX002 (ip), vehicle: distilled water + Tween-80
  T/C: 9 % of control

## Nc1n[nH]c2ccccc12
dose: 50.0 mg/kg/injection, schedule: Q07DX002 (ip), vehicle: acid diluted with saline
  T/C: 105 % of control
dose: 100.0 mg/kg/injection, schedule: Q07DX002 (ip), vehicle: acid diluted with saline
  T/C: 112 % of control
dose: 200.0 mg/kg/injection, schedule: Q07DX002 (ip), vehicle: acid diluted with saline
  T/C: 84 % of control
dose: 400.0 mg/kg/injection, schedule: Q07DX002 (ip), vehicle: acid diluted with saline
  T/C: 59 % of control
dose: 800.0 mg/kg/injection, schedule: Q07DX002 (ip), vehicle: acid diluted with saline
  T/C: 74 % of control

## COc1ccccc1CC(=O)O
dose: 75.0 mg/kg/injection, schedule: Q07DX002 (ip), vehicle: saline with Tween-80
  T/C: 78 % of control
[3]
  T/C: 107 % of control
[4]
  T/C: 98 % of control

## O=C(CCCN1CCC(C(O)c2ccc(F)cc2)CC1)c1ccc(F)cc1 (stereo not given)
dose: 12.5 mg/kg/injection, schedule: Q07DX002 (ip), vehicle: saline with Tween-80
  T/C: 59 % of control
dose: 25.0 mg/kg/injection, schedule: Q07DX002 (ip), vehicle: saline with Tween-80
  T/C: 49 % of control
[10]
  T/C: 92 % of control
[11]
  T/C: 67 % of control

## O=P(O)(NCCCl)NCCCl
dose: 12.5 mg/kg/injection, schedule: Q07DX002 (ip), vehicle: saline
  T/C: 52 % of control
dose: 25.0 mg/kg/injection, schedule: Q07DX002 (ip), vehicle: saline
  T/C: 100 % of control
dose: 50.0 mg/kg/injection, schedule: Q07DX002 (ip), vehicle: saline
  T/C: 60 % of control

## O=c1[nH]cnc2[nH]ncc12
[6]
  T/C: 83 % of control
[12]
  T/C: 69 % of control
[13]
  T/C: 88 % of control

## O=C(Cc1cccc2c(=O)cc(-c3ccccc3)oc12)OCCN1CCOCC1
[12]
  T/C: 70 % of control
[13]
  T/C: 49 % of control
dose: 200.0 mg/kg/injection, schedule: Q07DX002 (ip), vehicle: suspension in saline
  T/C: 68 % of control
[9]
  T/C: 17 % of control

## O=C(O)CC(=O)O.[NH-]CC[NH-].[Pt+2]
dose: 28.13 mg/kg/injection, schedule: Q07DX002 (ip), vehicle: dextrose
  T/C: 59 % of control
dose: 56.25 mg/kg/injection, schedule: Q07DX002 (ip), vehicle: dextrose
  T/C: 81 % of control

## OC(CBr)C(O)C(O)C(O)CBr (stereo not given)
[1]
  T/C: 83 % of control
[2]
  T/C: 83 % of control

## O=c1c(O)c(-c2cc(O)c(O)c(O)c2)oc2cc(O)cc(O)c12
[5]
  T/C: 95 % of control
